Measurements reported in US8362022B2, “Selective subtype alpha 2 adrenergic agents and methods for use thereof” (Allergan, Inc., priority 2008, dated 2013).

Experiments:
Alpha 1A = biological target: T1, Alpha 1A (Homo sapiens, UniProt P35348); experiment: RSAT assay (Receptor Selection and Amplification Technology), Alpha 1A; assay type: cell-based; details: value in parentheses, ratio of maximal effect of drug to maximal effect of standard full agonist
T1 sequence (P35348 1-466): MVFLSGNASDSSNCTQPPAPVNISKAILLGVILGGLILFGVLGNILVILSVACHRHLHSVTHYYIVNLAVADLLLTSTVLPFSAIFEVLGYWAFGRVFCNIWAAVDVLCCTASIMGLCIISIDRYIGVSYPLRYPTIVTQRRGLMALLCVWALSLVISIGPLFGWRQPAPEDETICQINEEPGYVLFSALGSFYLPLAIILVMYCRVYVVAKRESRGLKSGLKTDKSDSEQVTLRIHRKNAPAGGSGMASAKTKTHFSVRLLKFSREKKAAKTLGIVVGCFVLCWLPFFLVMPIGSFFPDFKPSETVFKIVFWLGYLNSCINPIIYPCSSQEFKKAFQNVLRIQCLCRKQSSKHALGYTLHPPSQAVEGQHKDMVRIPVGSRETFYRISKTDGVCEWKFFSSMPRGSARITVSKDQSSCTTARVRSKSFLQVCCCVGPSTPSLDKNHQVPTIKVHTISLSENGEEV
Experimental: The RSAT assay measures a receptor-mediated loss of contact inhibition that results in selective proliferation of receptor-containing cells in a mixed population of confluent cells. The increase in cell number is assessed with an appropriate transfected marker gene such as β-galactosidase, the activity of which can be easily measured in a 96-well format. Receptors that activate the G protein, Gq, elicit this response. Alpha 2 receptors, which normally couple to Gi, activate the RSAT response when coexpressed with a hybrid Gq protein that has a Gi receptor recognition domain, called Gq/i5.
NIH-3T3 cells are plated at a density of 2×10^6 cells in 15 cm dishes and maintained in Dulbecco's modified Eagle's medium supplemented with 10% calf serum. One day later, cells are cotransfected by calcium phosphate precipitation with mammalian expression plasmids encoding p-SV-β-galactosidase (5-10 μg), receptor (1-2 μg) and G protein (1-2 μg). 40 μg salmon sperm DNA may also be included in the transfection mixture. […] Cells are thawed and 100 μl added to 100 μL aliquots of various concentrations of drugs in triplicate in 96-well dishes. Incubations continue 72-96 hr at 37° C. After washing with phosphate-buffered saline, β-galactosidase enzyme activity is determined by adding 200 μL of the chromogenic substrate (consisting of 3.5 mM o-nitrophenyl-β-D-galactopyranoside and 0.5% nonidet P-40 in phosphate buffered saline), incubating overnight at 30° C. and measuring optical density at 420 nm. The absorbance is a measure of enzyme activity, which depends on cell number and reflects a receptor-mediated cell proliferation. The efficacy or intrinsic activity is calculated as a ratio of the maximal effect of the drug to the maximal effect of a standard full agonist for each receptor subtype. Brimonidine, the chemical structure of which is shown below, is used as the standard agonist for the alpha 2B and alpha 2C receptors. […] NA stands for “not active” at concentrations less than 3-10 micromolar.

[1] = tested on: Chung model of neuropathic pain; experiment: Chung model of neuropathic pain (tactile allodynia, von Frey hairs); assay type: in vivo; details: rats
Excerpt: A model in accordance with Kim and Chung 1992, Pain […], pp 355-363 (Chung model), for chronic pain (in particular peripheral neuropathy) involves the surgical ligation of the L5 (and optionally the L6) spinal nerves on one side in experimental animals. Rats recovering from the surgery gain weight and display a level of general activity similar to that of normal rats. However, these rats develop abnormalities of the foot, wherein the hindpaw is moderately everted and the toes are held together. More importantly, the hindpaw on the side affected by the surgery appears to become sensitive to pain from low-threshold mechanical stimuli, such as that producing a faint sensation of touch in a human, within about 1 week following surgery. This sensitivity to normally non-painful touch is called “tactile allodynia” and lasts for at least two months. The response includes lifting the affected hindpaw to escape from the stimulus, licking the paw and holding it in the air for many seconds. None of these responses is normally seen in the control group.
Rats are anesthetized before surgery. The surgical site is shaved and prepared either with betadine or Novacaine. Incision is made from the thoracic vertebra XIII down toward the sacrum. Muscle tissue is separated from the spinal vertebra (left side) at the L4-S2 levels. The L6 vertebra is located and the transverse process is carefully removed with a small rongeur to expose the L4-L6 spinal nerves. The L5 and L6 spinal nerves are isolated and tightly ligated with 6-0 silk thread. The same procedure is done on the right side as a control, except no ligation of the spinal nerves is performed.
A complete hemostasis is confirmed, then the wounds are sutured. A small amount of antibiotic ointment is applied to the incised area, and the rat is transferred to the recovery plastic cage under a regulated heat-temperature lamp. On the day of the experiment, at least seven days after the surgery, typically six rats per test group are administered the test drugs by intraperitoneal (i.p.) injection or oral gavage. For i.p. injection, the compounds are formulated in approximately 10 to 50% DMSO and given in a volume of 1 ml/kg body weight.
Tactile allodynia is measured prior to and 30 minutes after drug administration using von Frey hairs that are a series of fine hairs with incremental differences in stiffness. Rats are placed in a plastic cage with a wire mesh bottom and allowed to acclimate for approximately 30 minutes. The von Frey hairs are applied perpendicularly through the mesh to the mid-plantar region of the rats' hindpaw with sufficient force to cause slight buckling and held for 6-8 seconds. The applied force has been calculated to range from 0.41 to 15.1 grams. If the paw is sharply withdrawn, it is considered a positive response. A normal animal will not respond to stimuli in this range, but a surgically ligated paw will be withdrawn in response to a 1-2 gram hair. The 50% paw withdrawal threshold is determined using the method of Dixon, W. J., Ann. Rev. Pharmacol. Toxicol. 20:441-462 (1980). The post-drug threshold is compared to the pre-drug threshold and the percent reversal of tactile sensitivity is calculated based on a normal threshold of 15.1 grams. The results are expressed in percent (%) MPE, where the MPE value reflects the percentage reversal of pain threshold to that of a normal animal (100%).

Cc1cccc(C(Cc2cccnc2)/N=C2/NCCO2)c1C (stereo not shown) [Compound 21, 1-(2,3-Dimethylphenyl)-N-(oxazolidin-2-ylidene)-2-(pyridin-3-yl)ethanamine]
Intrinsic Activity efficacy Alpha 1A (Alpha 1A): 0.6
% Pain Reversal ± SEM ([1]; 0.10 mg i.p., 30 min): 27 ± 5%
% Pain Reversal ± SEM ([1]; 0.10 mg i.p., 60 min): ~10%
% Pain Reversal ± SEM ([1]; 0.30 mg i.p., 30 min): 60.1 ± 12.8%
% Pain Reversal ± SEM ([1]; 0.30 mg i.p., 60 min): 21.5 ± 6.1%
% Pain Reversal ± SEM ([1]; 1.0 mg i.p., 30 min): 95.9 ± 4.1%
% Pain Reversal ± SEM ([1]; 1.0 mg i.p., 60 min): 77.0 ± 7.6%
